The record followed here is US9975930B2, “Lantibiotic derivatives and process for their preparation” (NAICONS S.r.l., priority 2012, dated 2018).

Common to all, as to experiment: MIC by broth microdilution
The subject of one test is E. faecalis VanS. Format: cell-based. The settings on record: code 559, CAMHB broth.
The test system of the next test is S. aureus ATCC19636. The test is classed as cell-based, Staphylococcus aureus. Particulars: code 819, CAMHB broth.
The test system of test [1] is Staphylococcus aureus Met-S ATCC6538P. The test is classed as cell-based. Particulars: code 100; CAMHB broth; 20-24 hours at 35° C.
The subject of the next test is S. aureus ATCC 25923. Format: cell-based, Staphylococcus aureus. The settings on record: CAMHB broth; 20-24 hours at 35° C.
Test [2] relates to Staphylococcus aureus Met-R. The test is classed as cell-based. The settings on record: code 1400; CAMHB broth; 20-24 hours at 35° C.
The test system of test [3] is Enterococcus faecium VanS. The test is classed as cell-based. Particulars: code 568, CAMHB broth.
For another test, the system named is Candida albicans. The test is classed as cell-based. Particulars: code 145; RPMI-1640; 48 hours.
The test system of the next test is E. faecalis VanA. Format: cell-based. Particulars: code 560; CAMHB broth; 20-24 hours at 35° C.
The subject of another test is S. pyogenes. The test is classed as cell-based. The settings on record: code 49; Todd Hewitt broth; 20-24 hours at 35° C.
In another test the test system is E. faecium VanA. Format: cell-based, Enterococcus faecium. Particulars: code 569; CAMHB broth; 20-24 hours at 35° C.

On to `CN[C@H](CC(C)C)C(=O)N[C@H]1C(=O)N[C@@H](CC(N)=O)C(=O)N[C@H]2C(=O)N[C@H]3C(=O)N[C@H](C(=O)N[C@H](C(=O)O)c4cc(O)cc(O)c4-c4cc3ccc4O)[C@H](O)c3ccc(c(Cl)c3)Oc3cc2cc(c3O[C@@H]2O[C@H](CO)[C@@H](O)[C@H](O)[C@H]2O[C@H]2C[C@](C)(N)[C@H](O)[C@H](C)O2)Oc2ccc(cc2Cl)[C@H]1O` [VA, vancomycin], for which the “Minimal inhibitory concentration (MIC)” value in the test on E. faecalis VanS (+serum 30% (bovine serum)) is on record as 2; in the test with E. faecalis VanS (20-24 hours at 35° C.), 1; with S. aureus ATCC19636 (+serum 30% (bovine serum)) it was 1; in the test on S. aureus ATCC19636 (20-24 hours at 35° C.) it was 0.5; in test [1] it was 0.25; in the test on S. aureus ATCC 25923, 1. The “Minimal inhibitory concentration (MIC)” value is 0.5 in test [2]; 2 in test [3] (+serum 30% (bovine serum)); 2 in [3] (20-24 hours at 35° C.); more than 128 with Candida albicans; 2 in the test with E. faecalis VanA; 0.25 in the test with S. pyogenes. In addition, the “Minimal inhibitory concentration (MIC)” value in the test with E. faecium VanA is more than 128.
